Consider one compound from USRE38352E1, “Polymerase chain reaction assays for monitoring antiviral therapy and making therapeutic decisions in the treatment of acquired immunodeficiency syndrome” (priority 1992, dated 2003).

The subject of one assay is CD4 cells. Description: CD4 cell counts in long term AZT recipients related to codon 215 genotype. Format: in vivo, human (HIV-infected patients). The settings on record: for CD4 decline after serum mutation / mean decrease of CD4 cells after serum mutation: 19 patients; for mean CD4 count at the start of therapy: 26 patients who developed codon 215 mutation in serum. The method, then: Cryopreserved PBMC and serum from 40 participants in AIDS Clinical Trial Group (ACTG) protocols 019 (30 patients) and 016 (10 patients) at Stanford University Medical Center AIDS Clinical Trial Unit were used in this study. Patients at enrollment in these studies were AZT naive, had >200 CD4 cells/μl and had few (016) or no symptoms (019) referable to HIV infection. They were subsequently treated with AZT for 2 to 4 years. The most common dosage was 500 mg per day.
CD4 cell counts were obtained approximately every three months on each patient. All counts were performed at Stanford's ACTG-qualified cytofluorometry lab. Samples were stained with monoclonal antibodies to CD3, CD4, and CD8. The absolute CD4 count was calculated by multiplying the percent CD4 by the total lymphocyte count.
All comparisons between the patients with mutant and wild type strains were performed using the student's t-test. The calculations on the IC90s determined by the zidovudine sensitive assay were performed using the logl10 transformed IC90 (i.e., geometric means were used rather than arithmetic means).

In assay [1] the test system is HIV with codon 215 mutation. The conditions noted are these: mutation at codon 215; cited from earlier work.
[2] abbreviates: 11 patients wild type in serum over 34 months.

Several values for one entry are separate records, joined by “and”; a condition that tells them apart may be missing. Equal entries are not always repeated.

`Cc1cn([C@H]2C[C@H](N=[N+]=[N-])[C@@H](CO)O2)c(=O)[nH]c1=O` [AZT, zidovudine]: in the assay on CD4 cells (setting [2]), the CD4 increase is on record as 2% and the “increase of CD4 cells” value stood at 7±92 CD4 cells/μl. Also, in the assay with CD4 cells (at 12 months), the “CD4 decline after serum mutation” value stood at 40% and the “mean decrease of CD4 cells after serum mutation” value is given as 170±121 CD4 cells/μl. Moreover, in the assay on CD4 cells (at six months), the “CD4 decline after serum mutation” value is listed as 25% and the “mean decrease of CD4 cells after serum mutation” value was 100±116 CD4 cells/μl. In addition, the “mean increase in absolute CD4 count, start of therapy to end of study” value in the assay with CD4 cells (21 patients wild type at codon 215) came out at 11%. The “Starting absolute CD4” value in the assay with CD4 cells (21 patients wildtype at codon 215 in PBMC) is 397 cells/μl and 397 ± 124 cells/μl. Further, in the assay on CD4 cells (26 patients), the “mean CD4 count at first detection of codon 215 mutation in serum” value was 444±206 cells/μl and 444 cells/μl. Further, in the assay with CD4 cells, the “mean CD4 count at the start of therapy” value was 398±139 cells/μl and 398 cells/μl. Also, in the assay with CD4 cells (listed as zidovudine), the “mean CD4 count at the start of therapy” value is 398±139 cells/μl. Also, in the assay with CD4 cells (patients who remained wild type in serum), the “starting CD4 count” value is 397±115 cells/μl. Moreover, in the assay on CD4 cells (wildtype at codon 215 in PBMC), the “CD4 % at time of PCR analysis” value was 25% and 25 ± 9%; the “Starting CD4 %” value was 26 ± 8%. The “Absolute CD4 at time of PCR analysis” value in the assay with CD4 cells (wildtype at codon 215 in PBMC, 33 ± 8 months of AZT) is 424 cell/μl and 424 ± 210 cell/μl. In the assay on CD4 cells ({}), the “Starting CD4 %” value came to 25 ± 6% and the “decrease in absolute CD4 count, start of therapy to end of study” value worked out at 50%. Also, the “decrease in zidovudine susceptibility” value in assay [1] is recorded as 16 fold.
